Measured values published in article PMC3004914, “Classification of Drugs Based on Properties of Sodium Channel Inhibition: A Comparative Automated Patch-Clamp Study” (PLoS ONE, 2010).
Several values for one entry are separate records, joined by “and”; a condition that tells them apart may be missing. Equal values may be shown once. Read-outs that look alike come from different tables or passages of the source.

Columns and labels:
[1] = target: T1, rNav1.2 sodium channels (HEK-293 cells) (Rattus norvegicus, UniProt P04775); assay: 5 Hz train protocol, QPatch automated patch-clamp; assay type: cell-based; settings: for Rev (reversibility): Rev = A5/A1 after washout; for potency estimated from few doses: −90 mV, read-out: IC50; for potency: in words;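 for UD (use-dependence of the inhibition): UD = (A3/A4)/(A1/A2) as ratios of peak amplitudes from Figure 1A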
Source text: The dynamics of the onset and offset of inhibition was monitored using 5 Hz trains of five depolarizing pulses from a holding potential of −90 mV to −10 mV. The trains were repeated every 20 s. Drugs were applied after 10 control trains and 10 trains were delivered in the presence of the drug. The drug was then washed out, and the 10 trains were repeated.
We measured inhibition (Inh; from which we calculated IC50 values as described in Materials and Methods), reversibility of inhibition (Rev) and use-dependence (UD), as well as time constant of onset (τon) and offset (τoff). The calculation of IC50, quantification of Rev and UD, and the determination of time constants are illustrated in Figure 1A. Because τon should be concentration-dependent if we assume a single binding reaction, we excluded it from the analyses. […] Comments on the interpretation of these properties (Rev, […] and UD) are in Results S1.
(§1) A)–D) Peak amplitudes of evoked currents (5 Hz trains of 5 depolarizations from −90 to −10 mV) are plotted against time. Black dots: Control. Grey dots: Drug perfusion. […] Calculation of properties of inhibition is illustrated. […] E) Calculation of Kr and Ki values from steady-state availability curves.
(§2) HEK-293 cells stably expressing rNav1.2 sodium channels were obtained from NeuroSearch (Ballerup, Denmark).
(§3) Cells were automatically prepared for application to the chips (centrifuged and washed twice, then resuspended in extracellular solution) as described previously. Composition of the extracellular solution was: (in mM): 140 NaCl, 3 KCl, 1 CaCl2, 1 MgCl2, 0.1 CdCl2, 20 TEA-Cl, 5 HEPES, adjusted to pH 7.3, Osmolality: ∼320 mOsm.
(§4) All electrophysiological experiments were conducted on Qpatch-16 or QPatch HT instruments using QPlate™ chips. For a detailed description of the instrument and the patch-clamp chips see [37], [38]. Data were sampled at a frequency of 25 kHz and filtered at 5 kHz. […] The amplifier was controlled and the data were collected by the Sophion QPatch client software. For initial data analysis the QPatch software was used. Built-in amplifiers provide an improved method for series resistance compensation. Leak subtraction (based on a standard P/n protocol) was used to subtract the capacitive component of currents.
From this protocol we extracted five parameters, as illustrated in Figure 1A. We calculated inhibition of a single “cc” concentration: Inh = (amplitudectr – amplitudedrug)/amplitudectr.

[2] = target: T1, rNav1.2 sodium channels (HEK-293 cells); assay: steady-state inactivation protocol (availability curves), QPatch automated patch-clamp; assay type: cell-based
Source text: as §1
Standard steady-state inactivation protocols were used to measure the shift of steady-state availability curve caused by the drugs. Currents were evoked by a 10 ms test pulse to −10 mV, preceded by 400 ms pre-pulses from −150 to −30 mV. […] Because the inhibition at hyperpolarized potentials (Inh−150), and the shift of the availability curves (ΔV1/2) are both concentration-dependent properties, we calculated affinities to hyperpolarized and depolarized states (“resting state affinity”: Kr, and “inactivated state affinity”: Ki), which, on the other hand, are concentration-independent characteristics of individual drugs. Calculation of Kr and Ki values are described in Materials and Methods, and illustrated in Figure 1E. State-dependence (SD) was quantified as the ratio Kr/Ki.
as §2, §3, §4
Inactivated affinity (Ki) values were calculated assuming a simple four-state model of drug binding and channel gating, using two separate methods: (1) from the shift of the availability curve (ΔV1/2), the slope of the Boltzmann fit of the availability curve (k) and Kr, using the formula described by Bean, Cohen and Tsien (Ki−ΔV1/2; see Figure 1E), or (2) from the apparent affinity (Kapp) at a certain pre-pulse potential, which was calculated from the inhibition (e.g. Inh−60) as described above, and the availability (h) at the same pre-pulse potential, using the formula from Kuo and Bean (Figure 1E). […] (Arithmetic means and SEM values are given in Results S7.)

sodium channels = settings: averaged literature data, cited from earlier work; for Ki: read-out: Ki−Lit; for Kd: read-out: Kr−Lit
[3] = human plasma, cited from earlier work
[4] = 300 μM, 3 s assigned where too short to be resolved
[5] = HEK293, 300 μM, −90 mV holding potential, 5 Hz train, read-out: Inh (inhibited fraction)
[6] = HEK293, calculated from Inh at single concentration 300 μM, 5 Hz train
[7] = HEK293, 300 µM, read-out: Inh (inhibited fraction) at holding potential −150 mV
[8] = arithmetic mean, 300 µM, read-out: Ki-Kapp arith
[9] = arithmetic mean, 300 µM, read-out: Ki-ΔV1/2 arith
[10] = arithmetic mean, 300 µM, read-out: Kr arith
[11] = geometric mean, from Inh at −150 mV, 300 µM, read-out: Kr (resting state affinity)
[12] = geometric mean, from apparent affinity, 300 µM, read-out: Ki−Kapp (inactivated state affinity)
[13] = geometric mean, from shift of availability curve, 300 µM, read-out: Ki−ΔV1/2 (inactivated state affinity)
[14] = 30 μM, 500 s assigned where irreversible
[15] = HEK293, 30 μM, −90 mV holding potential, 5 Hz train, read-out: Inh (inhibited fraction)
[16] = HEK293, calculated from Inh at single concentration 30 μM, 5 Hz train
[17] = HEK293, 30 µM, read-out: Inh (inhibited fraction) at holding potential −150 mV

T1 sequence (P04775 whole entry): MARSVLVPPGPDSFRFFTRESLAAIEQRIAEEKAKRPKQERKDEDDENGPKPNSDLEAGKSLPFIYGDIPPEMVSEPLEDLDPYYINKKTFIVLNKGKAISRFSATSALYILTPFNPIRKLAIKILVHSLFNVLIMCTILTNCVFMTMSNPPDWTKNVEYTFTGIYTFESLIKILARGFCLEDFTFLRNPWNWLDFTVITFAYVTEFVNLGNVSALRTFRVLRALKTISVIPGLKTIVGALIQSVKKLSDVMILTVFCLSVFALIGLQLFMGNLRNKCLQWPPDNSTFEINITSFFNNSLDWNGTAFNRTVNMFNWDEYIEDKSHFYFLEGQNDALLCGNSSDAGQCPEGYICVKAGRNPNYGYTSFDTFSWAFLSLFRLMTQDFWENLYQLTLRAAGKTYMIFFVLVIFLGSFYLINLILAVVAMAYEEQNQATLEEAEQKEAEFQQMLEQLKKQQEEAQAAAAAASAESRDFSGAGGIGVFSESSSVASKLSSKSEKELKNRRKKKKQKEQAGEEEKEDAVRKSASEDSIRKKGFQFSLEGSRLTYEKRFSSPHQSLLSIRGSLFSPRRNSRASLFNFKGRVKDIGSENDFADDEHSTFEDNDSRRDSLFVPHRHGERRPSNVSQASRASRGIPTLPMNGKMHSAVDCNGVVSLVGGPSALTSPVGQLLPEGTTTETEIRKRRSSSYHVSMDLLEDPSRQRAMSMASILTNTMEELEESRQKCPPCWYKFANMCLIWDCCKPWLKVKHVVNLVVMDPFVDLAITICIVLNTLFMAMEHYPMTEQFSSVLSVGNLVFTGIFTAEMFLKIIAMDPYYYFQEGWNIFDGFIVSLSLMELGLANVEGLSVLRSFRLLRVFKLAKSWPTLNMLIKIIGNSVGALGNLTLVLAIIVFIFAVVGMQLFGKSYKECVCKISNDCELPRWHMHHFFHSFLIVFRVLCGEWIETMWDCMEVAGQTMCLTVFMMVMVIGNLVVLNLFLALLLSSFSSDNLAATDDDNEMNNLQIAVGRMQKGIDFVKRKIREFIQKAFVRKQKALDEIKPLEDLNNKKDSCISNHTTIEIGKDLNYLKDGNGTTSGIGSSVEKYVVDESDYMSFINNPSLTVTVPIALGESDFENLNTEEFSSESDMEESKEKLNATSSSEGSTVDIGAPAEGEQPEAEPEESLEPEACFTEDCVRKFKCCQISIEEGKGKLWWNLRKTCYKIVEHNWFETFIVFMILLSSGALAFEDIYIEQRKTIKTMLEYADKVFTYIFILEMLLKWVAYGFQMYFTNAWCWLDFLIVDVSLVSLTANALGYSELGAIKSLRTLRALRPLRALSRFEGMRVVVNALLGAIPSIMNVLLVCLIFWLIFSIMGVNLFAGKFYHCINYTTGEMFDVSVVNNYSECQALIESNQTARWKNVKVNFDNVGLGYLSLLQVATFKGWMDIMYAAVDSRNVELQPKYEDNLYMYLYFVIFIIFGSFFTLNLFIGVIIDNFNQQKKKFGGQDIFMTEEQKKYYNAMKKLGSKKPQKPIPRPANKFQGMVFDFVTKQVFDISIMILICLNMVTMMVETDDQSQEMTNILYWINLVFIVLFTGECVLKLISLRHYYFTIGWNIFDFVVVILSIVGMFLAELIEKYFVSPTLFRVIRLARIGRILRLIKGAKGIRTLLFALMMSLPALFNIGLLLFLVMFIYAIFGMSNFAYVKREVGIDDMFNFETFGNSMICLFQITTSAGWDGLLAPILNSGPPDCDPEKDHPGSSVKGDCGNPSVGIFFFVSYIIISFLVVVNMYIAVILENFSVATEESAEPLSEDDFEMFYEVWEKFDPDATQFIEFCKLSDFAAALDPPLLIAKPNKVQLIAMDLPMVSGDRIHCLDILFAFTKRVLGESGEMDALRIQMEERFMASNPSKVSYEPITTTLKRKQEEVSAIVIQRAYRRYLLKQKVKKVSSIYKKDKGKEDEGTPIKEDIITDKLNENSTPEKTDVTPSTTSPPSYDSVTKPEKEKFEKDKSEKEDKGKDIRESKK

SMILES	τoff ([1]; 300 μM)	τon [1, 4]	UD (use-dependence of the inhibition) ([1]; 300 μM, 5 Hz train)	Rev (reversibility) ([1]; 300 μM)	inhibition at 300 µM [1, 5]	potency estimated from few doses [1, 6]	potency [1]	ΔV1/2 (shift of availability curve) ([2]; 300 μM)	inhibition at 300 µM [2, 7]	Ki [2, 8]	Kd [2, 10]	Kd [2, 11]	Ki [2, 12]	Ki (sodium channels)	Kd (sodium channels)	plasma conc. ([3]; as printed in each cell)	plasma conc. ([3]; as printed in the µg/ml cell)	τon ([1]; 30 μM)	UD (use-dependence of the inhibition) ([1]; 30 μM, 5 Hz train)	τoff [1, 14]	further results
NC(=O)N1c2ccccc2C=Cc2ccccc21 [CBZ, Carbamazepine]	10.01 s	3 s	0.98	0.87	29%	718 µM	among the least potent SCIs	−11.4 mV	21%	26.9 µM	1180 µM	1170 µM	26.4 µM	21.8 µM	946 µM	9.3 [44] µg/ml	39.362 µM				Ki [2, 9]: 40.1 µM; Ki [2, 13]: 39.9 µM
CN(C)CCCN1c2ccccc2Sc2ccc(Cl)cc21 [CPM, Chlorpromazine]														0.19 µM	3.18 µM	0.1 [44] µg/ml	0.281 µM	14.81 s	1.30	9.67 s	Rev (reversibility) ([1]; 30 μM): 0.07; inhibition at 30 µM [1, 15]: 41%; potency estimated from few doses [1, 16]: 47.3 µM; ΔV1/2 (shift of availability curve) ([2]; 30 μM): −18.4 mV; inhibition at 30 µM [2, 17]: 32%; Ki ([2]; arithmetic mean, 30 µM, read-out: Ki-Kapp arith): 1.03 µM; Ki ([2]; arithmetic mean, 30 µM, read-out: Ki-ΔV1/2 arith): 0.33 µM; Kd ([2]; arithmetic mean, 30 µM, read-out: Kr arith): 85.8 µM; Kd ([2]; geometric mean, from Inh at −150 mV, 30 µM, read-out: Kr (resting state affinity)): 69.6 µM; Ki ([2]; geometric mean, from apparent affinity, 30 µM, read-out: Ki−Kapp (inactivated state affinity)): 0.82 µM; Ki ([2]; geometric mean, from shift of availability curve, 30 µM, read-out: Ki−ΔV1/2 (inactivated state affinity)): 0.29 µM
CNCCCN1c2ccccc2CCc2ccccc21 [DMI, Desipramine]														1.15 µM	29.2 µM	0.1 [44] µg/ml	0.330 µM	32.02 s	1.32	51.82 s	Rev (reversibility) ([1]; 30 μM): 0.43; inhibition at 30 µM [1, 15]: 62%; potency estimated from few doses [1, 16]: 18.3 µM; inhibition at 30 µM [2, 17]: 35%
O=C1NC(=O)C(c2ccccc2)(c2ccccc2)N1 [DPH, 5,5-diphenyl-hydantoin]	15.96 s	5.20 s	1.01	0.75	18%	1390 µM	among the least potent SCIs	−4.93 mV	12%	78.1 µM	2950 µM	2540 µM	70.8 µM	16.2 µM	701 µM	10 [44] µg/ml	39.64 µM				Ki [2, 9]: 172 µM; Ki [2, 13]: 150 µM
Cc1ccc(-c2nc(C)c(CN3CCN(C(c4ccccc4)c4ccccc4)CC3)[nH]2)cc1 [LIF, Lifarizine]							high potency							0.19 µM	10.2 µM	0.02 [59] µg/ml	0.046 µM	96.5 s	1.02	500 s	onset and offset kinetics (time constants) [1]: very slow kinetics; Rev (reversibility) ([1]; 30 μM): 0.01; use-dependence (UD) ([1]; 5 Hz train): no use-dependence; reversibility ([1]; 200 s of washout): apparent irreversibility; inhibition at 30 µM [1, 15]: 78%; potency estimated from few doses [1, 16]: 5.29 µM; ΔV1/2 (shift of availability curve) ([2]; 1 µM): −4.39 mV; inhibition at 1 µM ([2]; HEK293, 1 µM, read-out: Inh (inhibited fraction) at holding potential −150 mV): 2%; Ki ([2]; arithmetic mean, 1 µM, read-out: Ki-Kapp arith): 0.53 µM; Ki ([2]; arithmetic mean, 1 µM, read-out: Ki-ΔV1/2 arith): 0.96 µM; Kd ([2]; arithmetic mean, 1 µM, read-out: Kr arith): 63.2 µM; Kd ([2]; geometric mean, from Inh at −150 mV, 1 µM, read-out: Kr (resting state affinity)): 55.8 µM; Ki ([2]; geometric mean, from apparent affinity, 1 µM, read-out: Ki−Kapp (inactivated state affinity)): 0.5 µM; Ki ([2]; geometric mean, from shift of availability curve, 1 µM, read-out: Ki−ΔV1/2 (inactivated state affinity)): 0.91 µM and 0.92 µM
CC12CC3CC(C)(C1)CC(N)(C3)C2 [MEM, Memantine]														6.67 µM	178 µM	0.02 [53] µg/ml	0.075 µM				τon ([1]; 100 μM): 3.51 s; UD (use-dependence of the inhibition) ([1]; 100 μM, 5 Hz train): 0.99; τoff ([1]; 100 μM, 500 s assigned where irreversible): 8.98 s; Rev (reversibility) ([1]; 100 μM): 0.93; inhibition at 100 µM ([1]; HEK293, 100 μM, −90 mV holding potential, 5 Hz train, read-out: Inh (inhibited fraction)): 32%; potency estimated from few doses ([1]; HEK293, calculated from Inh at single concentration 100 μM, 5 Hz train): 230 µM; ΔV1/2 (shift of availability curve) ([2]; 100 μM): −1.77 mV; inhibition at 100 µM ([2]; HEK293, 100 µM, read-out: Inh (inhibited fraction) at holding potential −150 mV): 29%; Ki ([2]; arithmetic mean, 100 µM, read-out: Ki-Kapp arith): 32.6 µM; Ki ([2]; arithmetic mean, 100 µM, read-out: Ki-ΔV1/2 arith): 119 µM; Kd ([2]; arithmetic mean, 100 µM, read-out: Kr arith): 248 µM; Kd ([2]; geometric mean, from Inh at −150 mV, 100 µM, read-out: Kr (resting state affinity)): 242 µM; Ki ([2]; geometric mean, from apparent affinity, 100 µM, read-out: Ki−Kapp (inactivated state affinity)): 28.5 µM; Ki ([2]; geometric mean, from shift of availability curve, 100 µM, read-out: Ki−ΔV1/2 (inactivated state affinity)): 110 µM
Cc1cccc(C)c1OCC(C)N (centres unmarked) [MEX, Mexiletine]	12.93 s	8.6 s	1.39	0.78	57%	231 µM		−10.3 mV	32%	19.2 µM	662 µM	638 µM	17.9 µM	12.4 µM	395 µM	2 [44] µg/ml	9.271 µM				Ki ([2]; Ki-ΔV1/2 arith, arithmetic mean, 300 µM): 37.3 µM; Ki ([2]; Ki−ΔV1/2 (inactivated state affinity), geometric mean, from shift of availability curve, 300 µM): 26.8 µM
